Assay results as given in patent publication US20160214958A1, “COMPOUNDS AND USE FOR TREATING CANCER” (GLIONOVA AB, priority 2013, published 2016).
Like-named read-outs stand apart in the source and are kept apart here.

Experiments:
U87 glioma cell = details: at concentrations of 10 micromolar; cited from earlier work
[1] = system: glioma stem cell line U3013; experiment: In vitro cancer cell and CSC viability assay (ATP quantification, CellTiterGlo); format: cell-based, human; details: for IC95 for cell death: glioblastoma cells (U3013); for EC50: Homo sapiens, U3013, 24 hours exposure, read-out: In vitro efficacy (viability) EC50; for potency with respect to S10 (viability): individual isomers of racemic S10
Experimental: The ability of Examples S1-S23 to selectively induce cytotoxicity in glioma/glioblastoma cancer cells or glioma/glioblastoma cancer stem cells was determined by quantification of ATP production in glioma stem cell line U3013 in the presence of using CellTiterGlo reagent (Promega). Cells were exposed to compound in serial dilution in the range 1 nM to 50 µM for 24 hours and viability assessed with respect to negative control (dmso, no cell death) and positive control (staurosporine, full cell death). […] The EC50 of S10 remained largely similar at 2, 3 and 4 days of incubation. […] The individual isomers (S21-S23) of racemic S10 were evaluated in order to determine the enantiospecific pharmacology of the individual isomers.
Negative (100% DMSO) and positive (10 mM S10 in 100% DMSO) controls were placed in rows 1-4 and 5-8, respectively, of column 12. The wells were diluted with 190 μl of the corresponding growth media and 5 μl of each well of compound solution transferred to quadruplicate wells of a sterile 384-well black clear bottom plate (BD Falcon) containing GSC at 70% confluency in 45 μl growth media. The plate was incubated for 24 hours, after which the plate was removed from the incubator and each well imaged in bright-field using an Operetta Imaging system (PerkinElmer) at 37° C. and 5% CO2 to determine vacuole accumulation at each concentration. The plate was then allowed to cool to room temperature and each well treated with 25 μl freshly CellTiterGlo (Promega) reagent. The plate was shaken for 15 minutes and luminescence measured using a Victor3 (Perkin Elmer) microtiterplate reader. Total luminescence was normalized relative to control and curve fitting performed using GraphPad Prism (v6.02) software.

[2] = Pharmacokinetic evaluation of Vacquinol-1 stereoisomers, plasma and brain; format: in vivo, NMRI (SR/RS) or BALB/c (Vrac) mice; details: for Kp / AUC(0-t): NMRI (single stereoisomers SR/RS), BALB/c (racemate), mouse; for Kp: brain and plasma, 20 mg/kg, after oral dosing, read-out: Cmax exposures ratio (Cmax(brain)/Cmax(plasma)); for AUC(0-t): brain, read-out: AUClast Brain
Experimental: The pharmacokinetics of Vacquinol-1 (racemic), Vacquinol-1RS and Vacquinol-1SR, were determined in NMRI (SR/RS) or BALB/c (Vrac) mice following single intravenous (i.v.) or per oral (p.o) administration of 2 or 20 mg/kg Vacquinol-1, respectively. Blood and brain samples were taken from animals at the following nominal time points: 15, 30, and 60 minutes, and 2, 4, 6, 8, 24, 48, 72 and 144 hours after dosing (n=3/time-point). Bioanalytical quantification of Vacquinol-1 was analysed in plasma and brain samples by a UPLC-MS/MS.
Pharmacokinetics were calculated by non-compartmental analysis (NCA) from composite (mean) profiles. Nominal sampling times and dose levels have been used for the NCA calculations.

[3] = system: glioma stem cell line U3013; experiment: In vitro cancer cell and CSC viability assay (ATP quantification, CellTiterGlo); format: cell-based; details: Homo sapiens; 3000 cells/cm2, after 24 hours; read-out: EC50, viability of GSCs

| AUClast Plasma ([2]; 2 mg/kg i.v., mice) [µg·h/mL] | Cmax Brain ([2]; 2 mg/kg i.v., mice) [ng/mL] | tlast Brain ([2]; 2 mg/kg i.v., mice) [h] | tlast Plasma ([2]; 2 mg/kg i.v., mice) [h] | AUClast Plasma ([2]; 20 mg/kg p.o., mice) [µg·h/mL] | Cmax Brain ([2]; 20 mg/kg p.o., mice) [ng/mL] | tlast Brain ([2]; 20 mg/kg p.o., mice) [h] | tlast Plasma ([2]; 20 mg/kg p.o., mice) [h] | Kp [2] | AUC(0-t) ([2]; iv, 2 mg/kg i.v., mice) [ng·h/mL] | AUC(0-t) ([2]; po, 20 mg/kg p.o., mice) [ng·h/mL] | EC50 [1] [nM] | AUClast Brain ([2]; 20 mg/kg p.o., mice) [µg·h/mL] | EC50 [3] [µM] | Structure (SMILES) | reduction of U87 glioma cell viability (U87 glioma cell) | IC95 for cell death [1] [µM] | potency with respect to S10 (viability) [1] |
| --- | --- | --- | --- | --- | --- | --- | --- | --- | --- | --- | --- | --- | --- | --- | --- | --- | --- |
| – | – | – | – | – | – | – | – | – | – | – | – | – | – | O[C@@H](c1cc(C(F)(F)F)nc2c(C(F)(F)F)cccc12)[C@H]1CCCCN1 (racemic) [mefloquine, (2,8-bis(trifluoromethyl)quinolin-4-yl)(piperidin-2-yl)methanol, reference compound] | roughly 50% | 25.2 | – |
| 62 | 1970 | 144 | 144 | 246 | 4840 | 144 | 144 | 2.2 | 52700 | 400000 | 1720 | – | – | O[C@H](c1cc(-c2ccc(Cl)cc2)nc2ccccc12)[C@@H]1CCCCN1 [Compound S20, (R)-(2-(4-chlorophenyl)quinolin-4-yl)((S)-piperidin-2-yl)methanol] | – | 8.9 | equal or increased potency |
| 14.1 | 777 | 72 | 72 | 183 | 1490 | 144 | 144 | 0.7 | 9050 | – | 2670 | 157 | – | O[C@@H](c1cc(-c2ccc(Cl)cc2)nc2ccccc12)[C@H]1CCCCN1 [Compound S21, (S)-(2-(4-chlorophenyl)quinolin-4-yl)((R)-piperidin-2-yl)methanol] | – | – | equal or increased potency |
| – | – | – | – | – | – | – | – | – | – | – | – | – | 139 | Cn1nnc2c(C(N)=O)ncn2c1=O [temozolomide, reference compound] | – | – | – |
